Converted amounts (≈) assume the structure as drawn.

In experiment [1] the test system is isolated aortic ring. As to the kind of experiment: contraction of isolated rabbit aortic ring stimulated by noradrenaline (alpha-receptor). As to conditions: Oryctolagus cuniculus, isolated aortic ring from rabbits, read-out: IC50 b (active compound concentration at which the contraction of the aortic ring is inhibited by 50%). From the text: (§1) The specific calcium-antagonistic action of the compounds according to the invention is examined in a test on isolated rabbit vessels (aorta). In this test, contractions of the vascular muscle are caused in vitro by stimulation with KCl or by noradrenaline. KCl causes contractions due to the depolarization-dependent inwards flow of calcium ions.
(§2) These contractions are inhibited by calcium-antagonistic drugs as a function of the dose. Noradrenaline causes contractions by stimulation of the vascular alpha-receptors and the resulting release of calcium ions from the intracellular stores. The noradrenaline-induced contractions are not inhibited by specific calcium antagonists. In contrast, antagonists of the alpha-adrenoreceptors inhibit only the noradrenaline-induced contraction.
(§3) Table 1: Active compound concentration at which the contraction of the aortic ring is inhibited by 50% (IC50)
(§4) Isolated aortic ring from rabbits, stimulated

Experiment [2] concerns isolated aortic ring. Briefly: contraction of isolated rabbit aortic ring stimulated by KCl depolarization (calcium-antagonistic action). As to conditions: Oryctolagus cuniculus, isolated aortic ring from rabbits, read-out: IC50 a (active compound concentration at which the contraction of the aortic ring is inhibited by 50%).
Text: as §1, §2, §3, §4
(a) by KCl depolarization or […]

For the next experiment, the system named is hypertensive rats. As to the kind of experiment: arterial blood pressure of conscious spontaneously hypertensive rats (tail cuff) after oral administration. As to conditions: Rattus norvegicus, peroral, read-out: ED20 (reduction in blood pressure in hypertensive rats by 20 mm Hg). It is filed as in vivo, rat (spontaneously hypertensive rats of the Okamoto strain). Here is the method:
The compounds according to the invention are also active after oral administration. The arterial blood pressure of conscious rats with hypertension of genetic origin ("spontaneously hypertensive rats" of the Okamoto strain) is measured bloodlessly with a "tail cuff" at defined intervals of time after administration of the substance. The substances to be tested are suspended in a Tylose suspension and administered intragastrally ("orally") in various doses by means of a stomach tube. The compounds according to the invention reduce the arterial blood pressure of hypertensive rats in a clinically relevant dosage (see Table 3).
Table 3: Reduction in blood pressure in hypertensive rats by 20 mm Hg (ED20)

The test system of experiment [3] is anaesthetized cats. Briefly: vein volume of an extremity by plethysmography with simultaneous arterial blood pressure recording in anaesthetized cats. It is filed as in vivo, cat. As to conditions: Felis catus, iv; anaesthetized cats (ketamine), i.v., in comparison with the reference sodium nitroprusside; read-out: Dose giving significant increase in vein capacity. Here is the method: The vein volume of an extremity is measured by plethysmography on anaesthetized cats (ketamine). The arterial blood pressure is also recorded at the same time. Calcium-antagonistic DHP derivatives known hitherto reduce the arterial blood pressure and reduce the vein volume by reflectory vein constriction.
Table 2: Significant increase in vein capacity in anaesthetized cats in comparison with the reference active substance sodium nitroprusside.

Experiment [4] has as its system anaesthetized cats. As to conditions: statement on known substances; in words; cited from earlier work.

With `COC(=O)C1=C(C)NC(C)=C(C(=O)OCCCCCCNCCN(Cc2ccccc2)C(C)COc2ccccc2)C1c1cccc([N+](=O)[O-])c1` (stereo not drawn) [Example 1, 3-Methyl 5-{6-[2-[N-benzyl-N-(2-phenoxy-1-methylethyl)amino]ethylamino]hexyl}1,4-dihydro-2,6-dimethyl-4-(3-nitrophenyl)-pyridine-3,5-dicarboxylate], the IC50 in the experiment with isolated aortic ring [1] was more than 10 µg/mL; in the experiment on isolated aortic ring [2] it was 0.23 µg/mL (≈ 0.329 µM).

As to `COC(=O)C1=C(C)NC(C)=C(C(=O)OCCCCCCN(CCN(Cc2ccccc2)C(C)COc2ccccc2)CCN(Cc2ccccc2)C(C)COc2ccccc2)C1c1cccc([N+](=O)[O-])c1` (stereo not drawn) [Example 2, 3-Methyl 5-{6-[bis-[2-[N-benzyl-N-(2-phenoxy-1-methylethyl)amino]ethyl]amino]hexyl}1,4-dihydro-2,6-dimethyl-4-(3-nitrophenyl)-pyridine-3,5-dicarboxylate], the IC50 stood at 3 µg/mL (≈ 3.1 µM) with isolated aortic ring [1] and 0.9 µg/mL (≈ 0.931 µM) in the experiment with isolated aortic ring [2].

Regarding `CC1=C(C(=O)OCCNCCN(Cc2ccccc2)C(C)COc2ccccc2)C(c2cccc([N+](=O)[O-])c2)C(C(=O)OC(C)C)=C(C)N1` (stereo not drawn) [Example 3, 3-Isopropyl 5-{2-[2-[N-benzyl-N-(2-phenoxy-1-methylethyl)amino]ethylamino]ethyl}1,4-dihydro-2,6-dimethyl-4-(3-nitrophenyl)pyridine-3,5-dicarboxylate], the IC50 in the experiment with isolated aortic ring [1] was more than 10 µg/mL; with isolated aortic ring [2], 0.23 µg/mL (≈ 0.343 µM).

In the case of `CC1=C(C(=O)OCCN(CCN(Cc2ccccc2)C(C)COc2ccccc2)CCN(Cc2ccccc2)C(C)COc2ccccc2)C(c2cccc([N+](=O)[O-])c2)C(C(=O)OC(C)C)=C(C)N1` (stereo not drawn) [Example 4, 3-Isopropyl 5-(2-[bis-[2-[N-benzyl-N-(2-phenoxy-1-methylethyl)amino]ethyl]amino]ethyl}1,4-dihydro-2,6-dimethyl-4-(3-nitrophenyl)-pyridine-3,5-dicarboxylate], the IC50 in the experiment with isolated aortic ring [1] came to 5 µg/mL (≈ 5.33 µM); with isolated aortic ring [2] it was 0.4 µg/mL (≈ 0.426 µM).

With `COC(=O)C1=C(C)NC(C)=C(C(=O)OCCNC2CCN3CCc4c(ccc(OC)c4OC)C3C2)C1c1cccc([N+](=O)[O-])c1` (stereo not drawn) [Example 6], the IC50 amounted to 0.36 µg/mL (≈ 0.58 µM) with isolated aortic ring [1] and 0.26 µg/mL (≈ 0.419 µM) in the experiment with isolated aortic ring [2]. Besides, the ED (20 mm Hg) in the experiment with hypertensive rats turned out to be 1 mg/kg.

In the case of `COc1ccc2c(c1OC)CCN1CCC(NCCCOC(=O)C3=C(C)NC(C)=C(C(=O)OC(C)C)C3c3cccc([N+](=O)[O-])c3)CC21` (stereo not drawn) [Example 7, 3-Isopropyl 5-[3-(1,3,4,6,7,11b-hexahydro-8,9-dimethoxy-2H-benzo[a]quinolizin-2-yl-amino)propyl]1,4-dihydro-2,6-dimethyl-4-(3-nitrophenyl)pyridine-3,5-dicarboxylate], the figures for the IC50 in the experiment with isolated aortic ring [1] and with isolated aortic ring [2] were 1.4 µg/mL (≈ 2.11 µM) and 0.5 µg/mL (≈ 0.754 µM), respectively. The ED (20 mm Hg) in the experiment on hypertensive rats turned out to be 31.5 mg/kg.

With `COc1ccc2c(c1OC)CCN1CCC(NCCOC(=O)C3=C(C)NC(C)=C(C(=O)OC(C)C)C3c3cccc([N+](=O)[O-])c3)CC21` (stereo not drawn) [Example 8, 3-Isopropyl 5-[2-(1,3,4,6,7,11b-hexahydro-8,9-dimethoxy-2H-benzo[a]quinolizin-2-yl-amino)ethyl]1,4-dihydro-2,6-dimethyl-4-(3-nitrophenyl)pyridine-3,5-dicarboxylate], the IC50 was 1.6 µg/mL (≈ 2.47 µM) in the experiment with isolated aortic ring [1] and 0.3 µg/mL (≈ 0.462 µM) in the experiment on isolated aortic ring [2]. For the same compound, the ED (20 mm Hg) with hypertensive rats is 31.5 mg/kg.

For `COc1ccc2c(c1)CCN1CCC(NCCOC(=O)C3=C(C)NC(C)=C(C(=O)OC(C)C)C3c3cccc([N+](=O)[O-])c3)CC21` (stereo not drawn) [Example 9, 3-Isopropyl 5-[2-(1,3,4,6,7,11b-hexahydro-9-methoxy-2H-benzo[a]quinolizin-2-yl)amino]ethyl 1,4-dihydro-2,6-dimethyl-4-(3-nitrophenyl)pyridine-3,5-dicarboxylate], the minimal effective dose with anaesthetized cats [3] was 1 mg/kg.

Regarding `COC(=O)C1=C(C)NC(C)=C(C(=O)OCCN(C)CC2COc3ccccc3O2)C1c1cccc([N+](=O)[O-])c1` (stereo not drawn) [Example 11, 3-Methyl 5-{2-[N-(1,4-benzodioxan-2-yl-methyl)-N-methylamino]ethyl}1,4-dihydro-2,6-dimethyl-4-(3-nitrophenyl)pyridine-3,5-dicarboxylate], the IC50 with isolated aortic ring [1] came to 0.18 µg/mL (≈ 0.335 µM); in the experiment on isolated aortic ring [2], 0.23 µg/mL (≈ 0.428 µM). In the experiment on anaesthetized cats [3], the minimal effective dose is 0.1 mg/kg. The ED (20 mm Hg) in the experiment with hypertensive rats worked out at 3 mg/kg.

Turning to `CC1=C(C(=O)OCCNCC2COc3ccccc3O2)C(c2cccc([N+](=O)[O-])c2)C(C(=O)OC(C)C)=C(C)N1` (stereo not drawn) [Example 12, 3-Isopropyl 5-[2-(1,4-benzodioxan-2-yl-methylamino)ethyl]1,4-dihydro-2,6-dimethyl-4-(3-nitrophenyl)pyridine-3,5-dicarboxylate], the IC50 in the experiment with isolated aortic ring [1] was 0.4 µg/mL (≈ 0.725 µM); in the experiment with isolated aortic ring [2], 0.016 µg/mL (≈ 0.029 µM). Moreover, the minimal effective dose in the experiment with anaesthetized cats [3] was 0.1 mg/kg.

As to `COC(=O)C1=C(C)NC(C)=C(C(=O)OCCNCC2COc3ccccc3O2)C1c1cccc([N+](=O)[O-])c1` (stereo not drawn) [Example 13, 3-Methyl 5-[2-(1,4-benzodioxan-2-yl-methylamino)ethyl]1,4-dihydro-2,6-dimethyl-4-(3-nitrophenyl)pyridine-3,5-dicarboxylate], the results for the IC50 in the experiment on isolated aortic ring [1] and in the experiment with isolated aortic ring [2] were 0.7 µg/mL (≈ 1.34 µM) and 0.08 µg/mL (≈ 0.153 µM), respectively. Further, in the experiment with hypertensive rats, the ED (20 mm Hg) stood at 3 mg/kg.

As to `Cc1ccc(N(CC2=NCCN2)c2cccc(O)c2)cc1` [phentolamine], the “vein volume (known substances)” value in the experiment on anaesthetized cats [4] was “increase in the vein volume”.

Turning to `COC(=O)[C@@H]1[C@H]2C[C@H]3c4[nH]c5ccccc5c4CCN3C[C@@H]2CC[C@@H]1O` [yohimbine], the “vein volume (known substances)” value with anaesthetized cats [4] is “increase in the vein volume”.

Values taken from patent US4950676A, “Amino-esters of dihydropyridines, and their use as circulatory agents for treating ischaemic heart diseases” (Bayer Aktiengesellschaft, priority 1986, dated 1990).
